Experiments:
[1] = pH Chemical Stability Assay; format: physicochemical; details: pH range 1 to 8, after four hours, 40° C., 100 mcg/mL in buffers
Method: pH Chemical Stability Assay
The pH chemical stability is assessed using a semi-automated HPLC technique. Samples of 1-(2,2-difluoro-2-deoxy-β-D-ribofuranosyl)-4-(2-propyl-1-oxopentyl)aminopyrimidin-2-one are prepared at 100 mcg/mL in five buffers representing the pH range throughout the gastrointestinal tract (pH1-pH8). Samples are loaded onto an HPLC autosampler incubated at 40° C. Samples are repeatedly injected on the HPLC at hourly intervals for up to 24 hours with an HPLC column that separates a compound of formula I from gemcitabine. The peak area of 1-(2,2-difluoro-2-deoxy-β-D-ribofuranosyl)-4-(2-propyl-1-oxopentyl)aminopyrimidin-2-one is monitored by UV detection over time and are compared to initial peak areas to determine stability.

Mouse Pharmacokinetics = format: in vivo, male CD-1 mice
Method: The pharmacokinetic profiles of gemcitabine and 1-(2,2-difluoro-2-deoxy-β-D-ribofuranosyl)-4-(2-propyl-1-oxopentyl)aminopyrimidin-2-one are assessed in male CD-1 mice following oral administration at doses selected to contain approximately 10 mg/kg of gemcitabine. Designated animals (n=3/time point/compound) are sacrificed at 0.08, 0.25, 0.5, 1, 2, and 6 hours after dosing, and systemic blood samples are collected into EDTA-treated tubes containing tetrahydrouridine (0.5 mM final concentration in blood) to inhibit further metabolism of gemcitabine. An additional 3 animals are sacrificed at 0.08 hours for collection of hepatic portal blood. Plasma is isolated by centrifugation and frozen prior to analysis. Plasma concentrations of gemcitabine and prodrugs are determined by LC/MS/MS analysis. Pharmacokinetic parameters are calculated using WinNonlin software (Pharsight Corp., Mountain View, Calif.). Pharmacokinetic parameters of each prodrug are compared to those determined from administration of oral gemcitabine hydrochloride in a similar study design.

[2] = Monkey Pharmacokinetics Assay; format: in vivo; details: administered intravenously to cynomolgus monkeys
Method: Monkey Pharmacokinetics Assay
The pharmacokinetic profiles of gemcitabine and a 1-(2,2-difluoro-2-deoxy-β-D-ribofuranosyl)-4-(2-propyl-1-oxopentyl)aminopyrimidin-2-one are assessed in cynomolgus monkeys following oral and intravenous administration in a crossover design. Compounds are administered at doses selected to contain approximately 10 mg/kg of gemcitabine. Blood samples are collected into EDTA-treated tubes containing tetrahydrouridine (0.5 mM final concentration in blood) at designated intervals for up to 48 hours. Animals are pretreated with ranitidine (intravenous, 5 mg/kg) in the oral dosing periods. Plasma is isolated by centrifugation and frozen prior to analysis. Plasma concentrations of gemcitabine and 1-(2,2-difluoro-2-deoxy-β-D-ribofuranosyl)-4-(2-propyl-1-oxopentyl)aminopyrimidin-2-one are determined by LC/MS/MS analysis. Pharmacokinetic parameters are determined using WinNonlin software (Pharsight Corp., Mountain View, Calif.).

[3] = Small Intestine Homogenate Assay (all species); format: in vitro ADME, CD-1 mice, beagle dogs, cynomolgus monkeys, and humans; details: 100 uM, SIH 2.5-5 mg/mL protein, pH 7.5
Method: (§1) Small Intestine Homogenate Assay
(§2) To determine the stability of 1-(2,2-difluoro-2-deoxy-β-D-ribofuranosyl)-4-(2-propyl-1-oxopentyl)aminopyrimidin-2-one to enzymatic hydrolysis in the intestine, crude homogenates of small intestinal epithelial cells are prepared from sections of the upper small intestine from CD-1 mice, beagle dogs, cynomolgus monkeys, and humans. Mouse and dog homogenates are prepared from freshly collected tissue, while monkey and human homogenates are prepared from previously frozen tissues. Cells are gently scraped from intestinal segments, pooled, and homogenized in 50 mM acetate buffer using Polytron (PT-10-85). Protein concentrations are determined by standard spectrophotometric techniques. The prepared homogenates are store at −70° C. before using.
(§3) The hydrolytic rates of 1-(2,2-difluoro-2-deoxy-β-D-ribofuranosyl)-4-(2-propyl-1-oxopentyl)aminopyrimidin-2-one in small intestinal homogenates (SIH) is determined by incubating a compound of formula I (100 uM) with SIH (2.5-5 mg/mL of total protein) in acetate at pH 7.5 for up to 6 hours. Concentrations of gemcitabine released via hydrolysis is determined by LC/MS analysis after the reaction is quenched with acetonitrile. […]

[4] = Small Intestine Homogenate Assay, monkey; format: in vitro ADME, cynomolgus monkeys; details: 6 hour incubation
Method: as §1, §2, §3

[5] = Small Intestine Homogenate Assay, human; format: in vitro ADME, humans; details: 6 hour incubation
Method: as §1, §2, §3

[6] = Liver S9 Hydrolysis Assay (all species); format: in vitro ADME, CD-1 mouse, beagle dog, cynomolgus monkey, and human; details: all species described; 10 uM, S9 2 mg/mL protein, pH 8.0
Method: (§4) Liver S9 Hydrolysis Assay
(§5) Hydrolysis of 1-(2,2-difluoro-2-deoxy-β-D-ribofuranosyl)-4-(2-propyl-1-oxopentyl)aminopyrimidin-2-one by liver enzymes is determined by liver hydrolysis assay. Liver homogenates are prepared from CD-1 mouse, beagle dog, cynomolgus monkey, and human livers. Liver tissues are cut into small pieces using scissors, then, homogenized in 50 mM acetate buffer using Polytron (PT-10-85) for 1 min. Post-mitochondrial (S9) fractions are prepared from each by ultracentrifugation at 9,000×g at 4° C. for 10 min. Mouse, dog and monkey liver S9 fractions are prepared from freshly collected tissues, while human liver S9 are prepared from previously frozen tissue. After centrifugation, the supernatant is collected and protein concentrations are determined by standard spectrophotometric techniques. The prepared S9 fractions are store at −70° C. before using.
(§6) The hydrolytic rates of 1-(2,2-difluoro-2-deoxy-β-D-ribofuranosyl)-4-(2-propyl-1-oxopentyl)aminopyrimidin-2-one in liver S9 is determined by incubating compound (10 uM) with S9 (2 mg/mL of total protein) in phosphate buffered saline at pH 8.0 for up to 6 hours. Concentrations of gemcitabine released via hydrolysis are determined by LC/MS analysis after the reaction is quenched with acetonitrile. […]

[7] = Liver S9 Hydrolysis Assay, monkey; format: in vitro ADME, cynomolgus monkey; details: monkey liver S9, 6 hour incubation
Method: as §4, §5, §6

[8] = Liver S9 Hydrolysis Assay, human; format: in vitro ADME; details: human liver S9, 6 hour incubation
Method: as §4, §5, §6

Female CD-1 mice = test: 4-Day Mouse Screen (toxicology); format: in vivo; details: oral gavage once daily for 4 days, molar equivalent of 8-mg/kg gemcitabine
Method: To evaluate the toxicity produced by orally administered 1-(2,2-difluoro-2-deoxy-β-D-ribofuranosyl)-4-(2-propyl-1-oxopentyl)aminopyrimidin-2-one when administered daily to female […] mice for 4 days, the gastrointestinal toxicity profiles of 1-(2,2-difluoro-2-deoxy-β-D-ribofuranosyl)-4-(2-propyl-1-oxopentyl)aminopyrimidin-2-one is compared with the historical results for gastrointestinal toxicity when gemcitabine is administered orally at 8 mg/kg in a 4-day mouse study.
Female CD-1 mice 5-8 weeks of age are dosed with 1-(2,2-difluoro-2-deoxy-β-D-ribofuranosyl)-4-(2-propyl-1-oxopentyl)aminopyrimidin-2-one by oral gavage. A dose level is chosen to approximate a molar equivalent of 8-mg/kg gemcitabine. A dose volume of 10 mL/kg is used and doses are administered once daily on 4 consecutive days. Necropsy is performed approximately 5-8 hours following the 4th dose.
Clinical signs, clinical chemistry, gross pathology, and limited histopathology (ileum, jejunum, and liver) are evaluated.

[9] = tested on: Male and female CD-1 mice; test: 14 Day Mouse Study (toxicology); format: in vivo
Method: A 14-Day Mouse Study is conducted to evaluate whether 1-(2,2-difluoro-2-deoxy-β-D-ribofuranosyl)-4-(2-propyl-1-oxopentyl)aminopyrimidin-2-one produces adverse effects in mice following 14 days of oral gavage dosing and to determine the plasma concentrations of 1-(2,2-difluoro-2-deoxy-β-D-ribofuranosyl)-4-(2-propyl-1-oxopentyl)aminopyrimidin-2-one and its metabolites gemcitabine HCl and deoxydifluorouridine after 1 or 14 doses.
Male and female CD-1 mice 9-12 weeks of age are dosed with 1-(2,2-difluoro-2-deoxy-β-D-ribofuranosyl)-4-(2-propyl-1-oxopentyl)aminopyrimidin-2-one drug by oral gavage. A range of doses is selected in an effort to determine a maximum tolerated dose and dose limiting toxicity. A dose volume of 10 mL/kg is used and doses are administered once daily.
Clinical signs, body weight, food consumption, hematology, clinical chemistry, plasma concentrations of 1-(2,2-difluoro-2-deoxy-β-D-ribofuranosyl)-4-(2-propyl-1-oxopentyl)aminopyrimidin-2-one and metabolites gemcitabine HCl and deoxydifluorouridine, and pathology (including gross pathology, organ weights, and histopathology) are evaluated.

[10] = tested on: Male and female beagle dogs; test: 7-Day Dog Study (toxicology); format: in vivo; details: oral via capsule once daily for 7 days
Method: To evaluate the toxicity profile of 1-(2,2-difluoro-2-deoxy-β-D-ribofuranosyl)-4-(2-propyl-1-oxopentyl)aminopyrimidin-2-one when administered to Beagle dogs for 7 days, and to determine the plasma concentrations of 1-(2,2-difluoro-2-deoxy-β-D-ribofuranosyl)-4-(2-propyl-1-oxopentyl)aminopyrimidin-2-one and metabolites gemcitabine HCl and deoxydifluorouridine after 1 or 7 doses, a 7-day dog study is conducted.
Male and female beagle dogs 6-48 months of age are dosed orally via capsule with 1-(2,2-difluoro-2-deoxy-β-D-ribofuranosyl)-4-(2-propyl-1-oxopentyl)aminopyrimidin-2-one. A range of doses is selected in an effort to determine a maximum tolerated dose and dose limiting toxicity. A dose volume of 1 mL/kg is used and doses are administered once daily.
Clinical signs, body weight, food consumption, body temperature, hematology (including coagulation), clinical chemistry, urinalysis, plasma concentrations of 1-(2,2-difluoro-2-deoxy-β-D-ribofuranosyl)-4-(2-propyl-1-oxopentyl)aminopyrimidin-2-one and its metabolites gemcitabine HCl and deoxydifluorouridine, and pathology (including gross pathology, organ weights, and histopathology) were evaluated.

[11] = tested on: HCT-116 colon tumor cells; test: In Vivo Assay, HCT-116 colon tumor xenograft; details: oral gavage
Method: HCT-116 colon tumor cells are grown in vitro under standard tissue culture conditions, harvested, washed, and 5×10^6 cells (1:1 suspension in Matrigel, Collaborative Biomedical Products, Inc) are injected subcutaneously in the rear flank of female nude mice (Charles River, CD1 nu/nu, 24-27 g, irradiated with 450 Rads within 24 h of implantation). Tumors are allowed to grow to ˜100 mm^3 before initiation of therapy. Vehicle control, 1-(2,2-difluoro-2-deoxy-β-D-ribofuranosyl)-4-(2-propyl-1-oxopentyl)aminopyrimidin-2-one or gemcitabine-HCl at various dose levels are administered to the mice by oral gavage (10 ml/kg volume) at the times indicated in the individual experiments. Compounds are administered either daily for fourteen days, every other day for a total of seven doses, or every third day for a total of four doses. […] Tumor size is determined by caliper measurements and tumor volume (mm^3) is estimated from the formula l×w^2×0.536, where l is the larger and w is the smaller of perpendicular diameters. All data (tumor measurements and animal weights) are captured twice-weekly beginning with the start of therapy and analyzed using a computer based tumor measurement system.

mice [12] = details: single oral (gavage) dose of 167, 333, or 500 mg/kg; cited from earlier work
mice [13] = details: comparable exposures via intravenous dosing; cited from earlier work
[14] = result of first pass metabolism; cited from earlier work

Row | SMILES | degraded to gemcitabine [1] | concentrations of intact prodrug in hepatic portal plasma (Mouse Pharmacokinetics; 0.08 hours after oral dosing, CD-1 mice) | hydrolysis in vivo to release gemcitabine (Mouse Pharmacokinetics; administered orally to CD-1 mice, dose containing approximately 10 mg/kg of gemcitabine) | plasma exposure to gemcitabine compared to direct oral administration of gemcitabine hydrochloride (Mouse Pharmacokinetics; oral, CD-1 mice) | hydrolysis in vivo to release gemcitabine [2] | rate of hydrolysis in small intestine homogenate [3] | total compound converted to gemcitabine [4] | total compound converted to gemcitabine [5] | hydrolysis in liver S9 [6] | total compound converted to gemcitabine [7] | total compound converted to gemcitabine [8] | severity of atrophic intestinal changes or enteropathy versus gemcitabine HCl (Female CD-1 mice) | systemic gemcitabine exposure from the prodrug versus gemcitabine HCl on a molar equivalent basis ([9]; 14-day oral gavage study) | enteropathy versus gemcitabine HCl on a molar equivalent basis ([9]; 14 days of oral gavage dosing) | hematotoxicity and other toxicities, including GI toxicity [10] | overall toxicity versus equivalent amount of gemcitabine-HCl ([11]; HCT-116 tumor-bearing nude mice) | antitumor efficacy versus equivalent dose of gemcitabine-HCl ([11]; HCT-116 tumors in nude mice) | adverse dose-limiting intestinal lesions (mice [12]) | death or gastrointestinal toxicity (mice [13]) | oral bioavailability [14]
1 | CCCC(CCC)C(=O)Nc1ccn([C@@H]2O[C@H](CO)[C@@H](O)C2(F)F)c(=O)n1 [1-(2,2-difluoro-2-deoxy-β-D-ribofuranosyl)-4-(2-propyl-1-oxopentyl)aminopyrimidin-2-one] | Less than 25% | relatively high concentrations | extensively hydrolyzed | increased | extensively hydrolyzed | slow rate of hydrolysis | less than 3% | less than 3% | hydrolyzed | approximately 35% | approximately 35% | significant reduction | approximately twice | less enteropathy | consistent with what has been previously described for parenteral gemcitabine | less overall toxicity | comparable |  |  | 
2 | Nc1ccn([C@@H]2O[C@H](CO)[C@@H](O)C2(F)F)c(=O)n1 [gemcitabine, 2′,2′-difluoro-2′-deoxycytidine] |  |  |  |  |  |  |  |  |  |  |  |  |  |  |  |  |  | moderate-to-marked loss of mucosal epithelium (atrophic enteropathy) | did not result in death or gastrointestinal toxicity | poor oral bioavailability
